From patent US20040131567A1 (priority 2002, published 2004)

Tests used:
[1] = tested on: Bacillus anthracis Ames strain; format: cell-based
[2] = tested on: Bacillus anthracis Stearns strain; format: cell-based
[3] = tested on: Paenibacillus polymyxa, Bacillus licheniformis, Bacillus subtilis, Bacillus sphaericus, Bacillus cereus and a wild Bacillus strain; format: cell-based, Bacillus species; details: for average zone of inhibition: 3 replicate assays
psoriasis = details: in vivo
[4] = tested on: dry/cracking and scaly elbows; format: in vivo, human; details: regimen tried prior to the inventive composition
[5] = tested on: Bacillus licheniformis, B. sphaericus, Bacillus cereus, Bacillus subtilus, Bacillus anthracis (Stearns and Ames strains); format: cell-based, Bacillus species
[6] = tested on: Acinetobacter baummii/haemolyticus; format: cell-based; parameters: key: NG = no growth; details: Ac. baum/haemo >10^5 CFU/ml inoculated into 2 ml d-limonene
Pseudomonas aeruginosa = format: cell-based; parameters: key: NG = no growth; details: P. aeruginosa >10^5 CFU/ml inoculated into 2 ml d-limonene
[7] = tested on: Stenotrophomonas maltophila; format: cell-based; parameters: key: NG = no growth
[8] = tested on: Staphylococcus aureus, Staphylococcus epidermidis, Streptococcus pyogenes, Streptococcus mutans, other beta hemolytic streptococci, Entercoccus faecalis …; format: cell-based; details: in vitro
Enterobacter cloacae = format: cell-based; parameters: key: NG = no growth
[9] = tested on: gram-positive and gram-negative pathogens; format: cell-based
Serratia marcescens = format: cell-based; parameters: key: NG = no growth
Enterococcus faecalis = format: cell-based; parameters: key: NG = no growth; details: E. faecalis >10^5 CFU/ml inoculated into 2 ml d-limonene
Enterococcus faecium = format: cell-based; parameters: key: NG = no growth; details: E. faecium >10^5 CFU/ml inoculated into 2 ml d-limonene
Escherichia coli = format: cell-based; parameters: key: NG = no growth; details: E. coli >10^5 CFU/ml inoculated into 2 ml d-limonene
[10] = tested on: Escherichia coli, Enterobactor cloacae, Klebsiella pneumoniae, Serratia marcescens, Pseudomonas aeruginosa, Acinetobacter baummii/haemolyticus, Paenibacillus …; format: cell-based; details: in vitro
[11] = tested on: Staphylococcus epidermidis; format: cell-based; parameters: key: NG = no growth; details: S. epidermidis >10^5 CFU/ml inoculated into 2 ml d-limonene
Staphylococcus aureus = format: cell-based; parameters: key: NG = no growth; details: S. aureus >10^5 CFU/ml inoculated into 2 ml d-limonene
Klebsiella pneumoniae = format: cell-based; parameters: key: NG = no growth; details: K. pneumoniae >10^5 CFU/ml inoculated into 2 ml d-limonene

## O=[N+]([O-])[O-].[Ag+] [AgNO3, silver nitrate]
[1]
  zone of inhibition: 16 mm
[2]
  zone of inhibition (average inhibition zone): 18 mm
[3]; six Bacillus strains
  average zone of inhibition: 16 mm

## O=C(O)c1cn(C2CC2)c2cc(N3CCNCC3)c(F)cc2c1=O [CIPRO]
psoriasis
  effect of earlier treatments on the psoriasis: Neither treatment was effective
  side effects: unpleasant side effects

## NC(=O)N/N=C/c1ccc([N+](=O)[O-])o1 [Furacin, nitrofurazone]
[3]; six Bacillus strains
  average zone of inhibition: 35 mm

## OCl [NaOCl, sodium hypochlorite]
[1]
  zone of inhibition: no zones of inhibition
[2]
  susceptibility of the strain to the product: susceptible to all products tested except
[3]; only the inhibited strains P. Polymyxa, B. sphaericus and B. cereus
  average zone size: 16 mm
[3]; six Bacillus strains
  inhibition of the Bacillus strains (which strains): only inhibited P. Polymyxa, B. sphaericus and B. cereus

## COc1cc(C)c(/C=C/C(C)=C/C=C/C(C)=C/C(=O)O)c(C)c1C [SORIATANE]
psoriasis
  effect of earlier treatments on the psoriasis: Neither treatment was effective
  side effects: unpleasant side effects

## NCc1ccc(S(N)(=O)=O)cc1 [mafenide acetate]
[1]
  susceptibility of the strain to the product: susceptible
[2]
  susceptibility of the strain to the product: susceptible
[3]; six Bacillus strains
  average zone of inhibition: 36 mm

## Vitamin E
[4]
  effect of earlier regimen on the condition: no improvement
psoriasis
  effect of earlier treatments on the psoriasis: no results

## d-limonene
[5]
  effectiveness in eradicating Bacillus species: effective in eradicating
[6]; 24 hr
  Growth at 24 hr: NG
[6]; 48 hr
  Growth at 48 hr: NG
[6]; 72 hr
  Growth at 72 hr: NG
[1]
  zone of inhibition: 21 mm
Pseudomonas aeruginosa; 24 hr
  Growth at 24 hr: NG
Pseudomonas aeruginosa; 48 hr
  Growth at 48 hr: NG
Pseudomonas aeruginosa; 72 hr
  Growth at 72 hr: NG
[7]
  Growth at 24 hr: NG
  Growth at 48 hr: NG
  Growth at 72 hr: NG
[2]
  zone of inhibition (average inhibition zone): 30 mm
[8]
  effectiveness in eradicating gram-positive pathogens: effective in eradicating
Enterobacter cloacae
  Growth at 24 hr: NG
  Growth at 48 hr: NG
  Growth at 72 hr: NG
[9]
  effectiveness in killing or inhibiting growth of gram-positive and gram-negative bacteria: effective in killing or inhibiting the growth
  time within which all pathogens tested were effectively eradicated: ≤ 24 h
Serratia marcescens
  Growth at 24 hr: NG*
  Growth at 48 hr: NG
  Growth at 72 hr: NG
Enterococcus faecalis; 24 hr
  Growth at 24 hr: NG
Enterococcus faecalis; 48 hr
  Growth at 48 hr: NG
Enterococcus faecalis; 72 hr
  Growth at 72 hr: NG
Enterococcus faecium; 24 hr
  Growth at 24 hr: NG
Enterococcus faecium; 48 hr
  Growth at 48 hr: NG
Enterococcus faecium; 72 hr
  Growth at 72 hr: NG
Escherichia coli; 24 hr
  Growth at 24 hr: NG
Escherichia coli; 48 hr
  Growth at 48 hr: NG
Escherichia coli; 72 hr
  Growth at 72 hr: NG
[3]; six Bacillus strains
  average zone of inhibition: 21 mm
[10]
  effectiveness in eradicating gram-negative pathogens: effective in eradicating
[11]; 24 hr
  Growth at 24 hr: NG
[11]; 48 hr
  Growth at 48 hr: NG
[11]; 72 hr
  Growth at 72 hr: NG
Staphylococcus aureus; 24 hr
  Growth at 24 hr: NG*
Staphylococcus aureus; 48 hr
  Growth at 48 hr: NG
Staphylococcus aureus; 72 hr
  Growth at 72 hr: NG
Klebsiella pneumoniae; 24 hr
  Growth at 24 hr: NG
Klebsiella pneumoniae; 48 hr
  Growth at 48 hr: NG
Klebsiella pneumoniae; 72 hr
  Growth at 72 hr: NG
